Assay results as given in patent publication US20250236616A1, “IMMUNOMODULATING AZALIDES” (Zoetis Services LLC, priority 2021, published 2025).

What was measured:
[1] = test system: P. multocida; experiment: MIC, P. multocida strains; type: cell-based; details: Pasteurella multocida
Source text: (§1) Primary screening of the compounds of the invention included the evaluation of antibacterial activity of analogs through determination of microbial inhibition concentration (MIC) as per CLSI guidelines. The screening panel included the relevant BRD pathogens: 1) M. haemolytica (e.g., 12726, 46571 and 49023, all AHDRCC; and 33396 (ATCC)); and 2) P. multocida (e.g., 34135 and 46572 (both AHDRCC) and 43137 (ATCC)). In some instances, H. somni (A700025K) pathogens were also included in the screening panel. The AHDRCC strains originated from the Zoetis BRD/SRD surveillance program and refer to the Animal Health Development and Research Culture Collection. In addition, the screen assessed S. aureus (29213 ATCC) as a representative Gram-positive isolate, E.faecalis (19433 ATCC) as a commensal gram-positive gastrointestinal bacterium and E. coli (100, 3110 and 25922 (ATCC)) for the evaluation of efflux potential. The screening panel BRD pathogens were assessed in determining antibacterial activity of the Formula (1) compounds.
(§2) All relevant BRD pathogens were initially screened at a top concentration of 64 μg/mL of a Formula (1) compound in an eleven-point dilution series. […] If an Example was purified further, the MICs moved […] essentially two dilutions across all strains tested in the screening panel.
(§3) In-Vitro MIC Model Compounds were analyzed for antibacterial activity against a panel of animal health specific gram-positive and gram-negative clinical strains by diluting compounds in DMSO to an appropriate stock concentration to determine the Minimal Inhibitory Concentration (MIC) via a semi-automated broth micro-dilution method (CLSI reference method) with QC strains and anti-microbial agent(s). Specifically, bacteria were grown overnight on TSA w/5% sheep blood agar plates and diluted in saline buffer to a McFarland Standard 0.5, then further diluted in cation-ion adjusted Mueller Hinton Broth to a final concentration of approximately 5×10^5 CFU/mL. 100 μL of inoculated media was added to 96-well plate(s) with 3 μL of serially diluted compound in each row. Depending on strain (see CLSI reference method), bacteria were incubated 18-22 hours at 35-37° C. in ambient air, with 5% CO2 or anaerobically (up to 48 hours).

[2] = test system: S. aureus; experiment: MIC, S. aureus; type: cell-based; details: Staphylococcus aureus; S. aureus 29213
Source text: as §1, §2, §3

[3] = test system: IL-6; experiment: Whole bovine blood assay, LPS-induced IL-6; type: cell-based; details: Bos taurus, fresh whole bovine blood, LPS stimulant; top drug concentration 250 μM
[4] = test system: lung tissue gene expression, upstream regulators; experiment: Lung tissue RNA sequence analysis with ingenuity pathway analysis, murine P. multocida challenge; type: in vivo, mice; details: M9 32 mg/kg
Experimental: In one murine P. multocida intranasal challenge study, mice were administered tulathromycin (16 mg/kg; T02), M9 (32 mg/kg; T03), or ceftiofur (9 mg/kg; T04) by subcutaneous injection 18 hours after bacterial challenge (5×10^3 CFU/mouse) for lung tissue RNA sequence analysis. Survival at Day 7 was about 80%, 50%, and 90% for T02, T03, and T04, respectively, compared to placebo at 0%. Differential gene expression from total lung tissue RNA sequence analysis indicated at least 226 unique genes were up or down regulated (with significance) for T03. Output from ingenuity pathway analysis of these unique genes predicted major upstream regulators of the involved pathways. Data was analyzed based on the number of genes being modulated in the same direction that were associated with a given upstream regulator. An activation z-score of 2 or greater is considered significant and the direction change is indicated by + (activated) or -(inhibited). The top 5 pathways included: IL-9 signaling, glucocorticoid receptor signaling, prolactin signaling, JAK STAT signaling, and IL-17 signaling. The top 6 upstream regulators (activation z-score) included: lipopolysaccharide (−6.725), TNF (−4.669), IFNγ (−5.759), IL-1β (−5.947), STAT1 (−2.787), and poly rl: rC-RNA (−5.289). Even though this study was run in the murine model, the top upstream regulators identified as being modulated by M9 include an almost ubiquitous overlap with the pathways identified in the natural disease study as being key mediators in BRD, and therefore is modulating highly relevant pathways in BRD pathobiology.

[5] = test system: BRD pathogens, M. haemolytica and P. multocida; experiment: MIC screening panel, BRD pathogens (CLSI broth micro-dilution); type: cell-based; details: BRD pathogenic strains / target pathogens; read-out: MIC
Procedure, shortened: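 MICs were determined by CLSI broth micro-dilution in cation-adjusted Mueller Hinton Broth at about 5×10^5 CFU/mL, with QC strains included. Incubation was 18-22 h at 35-37° C. in air, 5% CO2 or anaerobically (up to 48 h) depending on strain. BRD pathogens were first tested at a top concentration of 64 μg/mL in an eleven-point dilution series.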

[6] = P. multocida 46572, murine efficacy challenge strain

SMILES | MIC ([1]; P. multocida 43137) [µg/mL] | MIC [1, 6] [µg/mL] | MIC [2] [µg/mL] | IC50 [3] [µM] | unique genes up or down regulated (with significance) ([4]; total lung tissue RNA sequence analysis) | activation z-score, upstream regulator IFNγ ([4]; − = inhibited) | activation z-score, upstream regulator IL-1β ([4]; − = inhibited) | activation z-score, upstream regulator STAT1 ([4]; − = inhibited) | activation z-score, upstream regulator TNF ([4]; − = inhibited) | activation z-score, upstream regulator lipopolysaccharide ([4]; − = inhibited) | activation z-score, upstream regulator poly rl: rC-RNA ([4]; − = inhibited) | MIC [5] [µg/mL]
CCCNC[C@]1(O)[C@H](C)O[C@@H](O[C@H]2[C@H](C)[C@@H](O[C@@H]3O[C@H](C)C[C@H](N(C)S(=O)(=O)c4ccc(C)cc4)[C@H]3O)[C@](C)(O)C[C@@H](C)CN[C@H](C)[C@@H](O)[C@](C)(O)[C@@H](CC)OC(=O)[C@@H]2C)C[C@@]1(C)OC [Example B-26, N-((2S,3R,4S,6R)-2-(((2R,3S,4R,5R,8R,10R,11R,12S,13S,14R)-2-ethyl-3,4,10-trihydroxy-13-(((2R,4R,5S,6S)-5-hydroxy-4-methoxy-4,6-dimethyl-5-((propylamino)methyl)tetrahydro-2H-pyran-2-yl)oxy)-3,5,8,10,12,14-hexamethyl-15-oxo-1-oxa-6-azacyclopentadecan-11-yl)oxy)-3-hydroxy-6-methyltetrahydro-2H-pyran-4-yl)-N,4-dimethylbenzenesulfonamide] | > 64 | > 64 | > 64 |  |  |  |  |  |  |  |  | 
CC[C@H]1OC(=O)[C@H](C)[C@@H](O)[C@H](C)[C@@H](O[C@@H]2O[C@H](C)C[C@H](N(C)S(=O)(=O)c3ccccc3)[C@H]2Oc2ccc(OC)cc2)[C@](C)(O)C[C@@H](C)CN[C@H](C)[C@@H](O)[C@]1(C)O [Example A-9, N-((2S,3R,4S,6R)-2-(((2R,3S,4R,5R,8R,10R,11R,12S,13S,14R)-2-ethyl-3,4,10,13-tetrahydroxy-3,5,8,10, 12, 14-hexamethyl-15-oxo-1-oxa-6-azacyclopentadecan-11-yl)oxy)-3-(4-methoxyphenoxy)-6-methyltetrahydro-2H-pyran-4-yl)-N-methylbenzenesulfonamide] | > 64 | > 64 | > 64 | 21 |  |  |  |  |  |  |  | 
CC[C@H]1OC(=O)[C@H](C)[C@@H](O[C@H]2C[C@@](C)(OC)[C@](O)(CN3CCCCC3)[C@H](C)O2)[C@H](C)[C@@H](O[C@@H]2O[C@H](C)C[C@H](N(C)S(=O)(=O)Nc3ccc(C(F)(F)F)cc3)[C@H]2O)[C@](C)(O)C[C@@H](C)CN[C@H](C)[C@@H](O)[C@]1(C)O [Example C-11, (2R,3S,4R,5R,8R,10R,11R,12S, 13S, 14R)-2-ethyl-3,4, 10-trihydroxy-13-[(2R,4R,5S,6S)-5-hydroxy-4-methoxy-4,6-dimethyl-5-(piperidin-1-ylmethyl)oxan-2-yl]oxy-11-[(2S,3R,4S,6R)-3-hydroxy-6-methyl-4-[methyl-[[4-(trifluoromethyl)phenyl]sulfamoyl]amino]oxan-2-yl]oxy-3,5,8, 10, 12, 14-hexamethyl-15-oxo-1-oxa-6-azacyclopentadecane] | > 64 | > 64 | > 64 | 13 |  |  |  |  |  |  |  | 
CC[C@H]1OC(=O)[C@H](C)[C@@H](O[C@H]2C[C@@](C)(OC)[C@](O)(CN3CCCCC3)[C@H](C)O2)[C@H](C)[C@@H](O[C@@H]2O[C@H](C)C[C@H](N(C)S(=O)(=O)c3ccc(Cl)cc3)[C@H]2O)[C@](C)(O)C[C@@H](C)CN[C@H](C)[C@@H](O)[C@]1(C)O [Example C-4, 4-chloro-N-((2S,3R,4S,6R)-2-(((2R,3S,4R,5R,8R,10R,11R,12S,13S,14R)-2-ethyl-3,4,10-trihydroxy-13-(((2R,4R,5S,6S)-5-hydroxy-4-methoxy-4,6-dimethyl-5-(piperidin-1-ylmethyl)tetrahydro-2H-pyran-2-yl)oxy)-3,5,8, 10, 12, 14-hexamethyl-15-oxo-1-oxa-6-azacyclopentadecan-11-yl)oxy)-3-hydroxy-6-methyltetrahydro-2H-pyran-4-yl)-N-methylbenzenesulfonamide] | > 128 | > 128 | > 128 |  |  |  |  |  |  |  |  | 
CCCNC[C@]1(O)[C@H](C)O[C@@H](O[C@H]2[C@H](C)[C@@H](O[C@@H]3O[C@H](C)C[C@H](N(C)S(=O)(=O)Nc4ccc(C(F)(F)F)cc4)[C@H]3O)[C@](C)(O)C[C@@H](C)CN[C@H](C)[C@@H](O)[C@](C)(O)[C@@H](CC)OC(=O)[C@@H]2C)C[C@@]1(C)OC [Example B-50, (2R,3S,4R,5R,8R,10R,11R,12S,13S, 14R)-2-ethyl-3,4,10-trihydroxy-13-[(2R,4R,5S,6S)-5-hydroxy-4-methoxy-4,6-dimethyl-5-(propylaminomethyl)oxan-2-yl]oxy-11-[(2S,3R,4S,6R)-3-hydroxy-6-methyl-4-[methyl-[[4-(trifluoromethyl)phenyl]sulfamoyl]amino]oxan-2-yl]oxy-3,5,8, 10, 12, 14-hexamethyl-15-oxo-1-oxa-6-azacyclopentadecane] | > 64 | > 64 | > 64 | 49 |  |  |  |  |  |  |  | 
CCCNC[C@]1(O)[C@H](C)O[C@@H](O[C@H]2[C@H](C)[C@@H](O[C@@H]3O[C@H](C)C[C@H](NC)[C@H]3O)[C@](C)(O)C[C@@H](C)CN[C@H](C)[C@@H](O)[C@](C)(O)[C@@H](CC)OC(=O)[C@@H]2C)C[C@@]1(C)OC [Example M9, (2R,3S,4R,5R,8R,10R,11R,12S,13S,14R)-2-ethyl-3,4, 10-trihydroxy-13-(((2R,4R,5S,6S)-5-hydroxy-4-methoxy-4,6-dimethyl-5-((propylamino)methyl)-tetrahydro-2H-pyran-2-yl)oxy)-11-(((2S,3R,4S,6R)-3-hydroxy-6-methyl-4-(methylamino)tetrahydro-2H-pyran-2-yl)oxy)-3,5,8,10,12,14-hexamethyl-1-oxa-6-azacyclopentadecan-15-one] |  |  |  |  | at least 226 | −5.759 | −5.947 | −2.787 | −4.669 | −6.725 | −5.289 | ≤ 64
